# Experimental data from EP2605769B1, “BENZOQUINONE DERIVATIVES FOR THE TREATMENT OF MITCHONDRIAL EYE DISEASES” (Santhera Pharmaceuticals (Schweiz) AG, priority 2010, dated 2012).
# Where “and” joins values, the source holds several entries; their conditions need not be identical. Equal entries are not always repeated.
# Columns and labels:
# RGC-5 cells = assay: Cellular viability of RGC-like cells challenged with rotenone (cellular ATP content); assay type: cell-based
# Excerpt: Mitochondrial impairment directly influences cellular survival. Especially cells and tissues that display high level of energy consumption, such as neurons are especially vulnerable. Consequently, these cells and tissues are likely to be the most responsive to a strategy that targets mitochondrial function. We addressed this possibility by assessing the viability of the retinal ganglion cell line RGC-5, challenged with the mitochondrial complex I inhibitor rotenone, in the absence or presence of compounds.
# Experimental procedure: RGC-5 cells were cultured under ambient conditions (37 °C, 5% CO2, 90% humidity) in DMEM (1g/l glucose; 10% fetal bovine serum (FBS), Penicillin-Streptomycin-Glutamine (PSG)). RGC-5 cells will be seeded in DMEM (1g/l glucose; 2% FBS) into BD Falcon™ cell culture plates. Before rotenone- induced complex I inhibition, the cells were pre-treated with Compound IA or vehicle. For Compound IA co-treatment with rotenone, new compound was added together with rotenone-containing cell culture media. After the rotenone exposure, the media was exchanged and replaced by Hanks' BSS for the 1 day post-incubation. The post-treatment media contained Compound IA or vehicle only. As measure of cell viability, cellular ATP content was analyzed using luminescence from ATP-dependent enzymatic oxidation of luciferin by luciferase. RGC-5 cells were be washed with PBS and lysed in lysis buffer (4 mM EDTA, 0.2% Triton X-100) at room temperature. In 96-well plates, ATP measurement buffer (25 mM HEPES pH 7.25, 300 µM D-luciferin, 5 µg/ml firefly luciferase, 75 µM DTT, 6.25 mM MgCl2, 625 µM EDTA and 1 mg/ml BSA) was combined with lysate to start the reaction. Luminescence was quantified immediately using a multimode plate reader (Tecan M1000, Tecan iControl 1.6 software; Tecan Austria GmbH, Grödig, Austria). Effects on cell viability were defined as the percentage of compound-mediated change in cell viability relative to rotenone-induced reduction in cell viability. Data are presented as mean ± SEM. Paired Student's t-test was used to compare non-normalized data. Statistical significance was set at p≤0.05(*), p≤0.01(**) and p≤0.001(***).
# C57BL/6J mice = assay: Optomotor testing of visual acuity in the rotenone mouse model; assay type: in vivo; details: for Number of counterclockwise head movements/ 2 min / Number of clockwise head movements/ 2 min: 5 weeks after injection, ± SEM; for Number of counterclockwise head movements/ 2 min: non-injected eye; for Number of clockwise head movements/ 2 min: rotenone-injected eye; for Number of head movements: 2000 mg/kg in diet, mean ± SEM
# Description: Since RGC loss is associated with visual acuity impairment, we tested whether the neuroprotective effect of the test compound IA also correlated with recovery of visual function. For this purpose, visual acuity was detected by quantifying the optomotor response of animals subjected to the test system described above. The optomotor response was measured as previously described (see […]., et al. Vis. Res., 2005). Mice were placed on a central platform surrounded by a motorized drum with black and white vertical stripes that can rotate in both, clockwise and counterclockwise, direction at different velocities (which can be adjusted to evoke the optimal optokinetic response), and under constant light levels. Mice were allowed to habituate for 5 min to the experimental conditions before stripes were rotated alternately clockwise and counterclockwise, for 2 min in each direction and with an interval of 30 s between the two rotations. The mice were recorded on a computer using a digital video camera mounted above the apparatus to subsequently score the number of head movements by manual counting. Head movements were scored only when the angular speed of the head turn corresponds to that of the drum rotation. After aquisition and encoding by an investigator, a second, blinded investigator conducted all assessments. Codes were broken upon completion of data acquisition by a third investigator. Each mouse was tested at different time points and the apparatus will be cleaned between mice. Data will be presented as mean ± SEM. Paired Student's t-test and analysis of variance (ANOVA) will be used to compare non-normalized data. Statistical significance will be set at p≤0.05(*), p≤0.01(**) and p≤0.001 (***). Table 7: Effect of idebenone pre-treatment on visual acuity in an in vivo mouse model for LHON. Quantification of mouse visual acuity based on the optomotor response in mice pre-treated for 3 weeks with vehicle and idebenone 2000 mg/kg in diet. […] The optomotor response was examined in both clockwise (a) and counterclockwise (b) directions of motion, clockwise and counterclockwise tracking head movements reflecting visual acuity of the rotenone-injected (left) and non-injected (right) eye, respectively.
# [1] = Cytotoxicity assay (WST-1); assay type: cell-based, human; details: human, hepg2 cells, Hep-G2 cells, 24 hours exposure, read-out: TC50
# Excerpt: This assay investigates cytotoxicity which is defined as the cell-killing property of a chemical compound, independent from the mechanisms of cell death. The HepG2 hepatoblastoma cell line is one of the most common human cell lines for hepatotoxicity studies. […] This assay measures metabolic activity of living cells using the WST-1 cell proliferation reagent (Roche Diagnostics). The tetrazolium salt WST-1 is cleaved to water soluble formazan by cellular enzymes. An expansion in the number of viable cells results in an increase in the overall activity of mitochondrial dehydrogenases in the sample. This augmentation in enzyme activity leads to an increase in the amount of formazan dye formed, which directly correlates to the number of metabolically active cells in the culture. The formazan dye produced by metabolically active cells is directly quantified in a scanning multiwell spectrophotometer by measuring the absorbance of the formazan dye solution between 420 and 480 nm. Healthy HepG2 cells, when maintained in culture, continuously divide and multiply over time. A toxic chemical, regardless of site and mechanism of action, will interfere with this process and result in the reduction of the growth rate reflected in the cell number.
# Experimental Procedure: Hep-G2 cells are seeded into a 96-well microplate and maintained in culture for 24 hours. They are then exposed to the test compound over a range of eight concentrations. After 24 hours exposure, the cells are incubated in presence of reagent WST-1 for 30 min before measuring the absorbance of the formazan dye formed. Cytotoxicity is expressed as a concentration dependent reduction of the conversion formazan dye formation due to a decrease in cell proliferation as compared to untreated cells. The TC50 (Toxic Concentration 50%), is defined as the concentration of tested compound required to reduce the cellular viability by 50% relative to the control culture. The lower the TC50 value, the higher is the cytotoxic potential of the test compound. […]
SMILES,"cell viability, compound-mediated change relative to rotenone-induced reduction, mean (RGC-5 cells; 1 day-preincubation, 100 nM) [%]","cell viability, compound-mediated change relative to rotenone-induced reduction, mean (Fig. 2) (RGC-5 cells; 1 day-preincubation, 1 µM)","cell viability, compound-mediated change relative to rotenone-induced reduction, mean (RGC-5 cells; 2 day-preincubation, 1 nM) [%]","cell viability, compound-mediated change relative to rotenone-induced reduction, mean (RGC-5 cells; 2 day-preincubation, 10 nM)","cell viability, compound-mediated change relative to rotenone-induced reduction, mean (RGC-5 cells; 2 day-preincubation, 100 nM)","cell viability, compound-mediated change relative to rotenone-induced reduction, mean (RGC-5 cells; 2 day-preincubation, 1000 nM)","concentrations at which viability of RGC-5 cells was significantly rescued (RGC-5 cells; rotenone challenge, dose dependent) [nM]",Number of counterclockwise head movements/ 2 min (C57BL/6J mice; 2000 mg/kg + rotenone 1 mM) [head movements/2 min],Number of clockwise head movements/ 2 min (C57BL/6J mice; 2000 mg/kg + rotenone 1 mM) [head movements/2 min],Number of counterclockwise head movements/ 2 min (C57BL/6J mice; 2000 mg/kg + rotenone 5 mM) [head movements/2 min],Number of clockwise head movements/ 2 min (C57BL/6J mice; 2000 mg/kg + rotenone 5 mM) [head movements/2 min],Number of head movements (C57BL/6J mice; time post-injection 1 day),Number of head movements (C57BL/6J mice; time post-injection 7 days),Number of head movements (C57BL/6J mice; time post-injection 14 days),Number of head movements (C57BL/6J mice; time post-injection 21 days),Number of head movements (C57BL/6J mice; time post-injection 28 days),Number of head movements (C57BL/6J mice; time post-injection 35 days),Number of head movements (C57BL/6J mice; time post-injection 56 days),Number of head movements (C57BL/6J mice; time post-injection -7 days),CC50 at 24 h [1] [µM]
"COC1=C(OC)C(=O)C(CCCCCCCCCCO)=C(C)C1=O [Compound IA, Idebenone]",12.6,highly significant,1.0,7% and 7.3%,35% and 34.9%,58% and 58.4%,≥ 10,12.5 ± 4.5,9 ± 2,10.5 ± 0.6,3.5 ± 1.5,0 ± 0 (n=7) head movements/2 min,0.5 ± 0.5 (n=7) head movements/2 min,1.8 ± 0.8 (n=7) head movements/2 min,2.8 ± 1.4 (n=7) head movements/2 min,2.8 ± 1.4 (n=7) head movements/2 min,3.5 ± 1.5 (n=7) head movements/2 min,6 ± 2.1 (n=4) head movements/2 min,9.7 ± 0.7 (n=7) head movements/2 min,
COC1=C(OC)C(=O)C(CCCCCCCCCC(C)(C)O)=C(C)C1=O [Compound IC],,,,,,,,,,,,,,,,,,,,71.9
